We go through 5 molecules from patent publication US5010107A, “Method and composition for achieving anticarcinogenic activity” (priority 1989, dated 1991).

Where two headings read alike, the source gives them in different places.

The subject of one data set is β-glucuronidase. The conditions noted are these: cells, blood, cited from earlier work.
For data set [1] the following is noted: cited from earlier work.
The subject of data set [2] is 7,12-dimethylbenz(a)anthracene-induced mammary tumors. Description: DMBA-induced mammary tumor formation in rats fed CGT, HPR or both. Format: in vivo, female Sprague Dawley rats. The following applies: for Rats with tumors / Total No. tumors: 20 rats. As for the experimental part:
They were maintained on the diets for approximately 4 mos., and were examined (palpated) for mammary tumors weekly. […] The retinoid (HPR) was first dissolved in 25 ml of a vehicle consisting of ethanol-tricaprylin-6% α-tocopherol, then thoroughly mixed with powdered rat chow.

A further data set concerns carcinogenesis. The following applies: higher doses of CGT; cited from earlier work.
Data set [3] has as its system 7,12-dimethylbenz(a)anthracene-induced mammary tumorigenesis. The following applies: cited from earlier work.
For data set [4], the system named is established DMBA-induced mammary tumors. Description: Growth of established DMBA-induced mammary tumors. The data set is classed as in vivo, female Sprague Dawley rats. The conditions noted are these: 2 mmol/kg diet; within 5 to 10 days. As for the experimental part: (§1) When higher doses (2 mmol/kg diet) of HPR were used, growth arrest was followed within 5 to 10 days by 30% regression of the DMBA-induced mammary tumors. Also, HPR (0.1 uM) inhibited the […] growth of the human breast cancer cell line (MCF-7) to 50% of the control within 7 days.

For data set [5], the system named is established mammary tumors. Put plainly: Growth of established mammary tumors in CD8 F1 mice. Format: in vivo. As for the experimental part:
as §1

Data set [6] relates to cellular cAMP (cyclic AMP) and histone kinases. The conditions noted are these: cited from earlier work.

As for 2,4-di-O-acetyl-D-glucaro-1,4-lactone, in the data set with β-glucuronidase (urine, intestine and liver), the “inhibition of β-glucuronidase” value is on record as “effective as inhibitors of β-glucuronidase”. Moreover, the “release of D-glucaro-1,4-lactone (GL) when fed” value (“release of D-glucaro-1,4-lactone” below) in data set [1] (in vivo) is listed as “slowly release D-glucaro-1,4-lactone (GL)”.
On to `O=C([O-])[C@@H](O)[C@@H](O)[C@H](O)[C@@H](O)C(=O)[O-].[Ca+2]` [CGT, calcium glucarate], for which, in data set [2] (1.0% CGT alone), the “inhibition of tumor incidence” value was found to be 20% and the inhibition of tumors/rat is 9%. For the same molecule, in data set [2] (1% CGT in chow diet), the “Tumor Incidence” value amounted to 55, the Tumors per rat was 1.0, the Rats with tumors came to 11 and the “Total No. tumors” value stood at 20. Moreover, in data set [2] (2% CGT in chow diet), the “Tumor Incidence” value was 55, the Tumors per rat is 1.0, the Rats with tumors came to 11 and the “Total No. tumors” value stood at 20. Further, in data set [2] (4% CGT in chow diet), the “Tumor Incidence” value is 35, the Tumors per rat is 0.5, the Rats with tumors is listed as 7 and the “Total No. tumors” value worked out at 10. Moreover, the “inhibition of β-glucuronidase” value with β-glucuronidase (urine, intestine and liver) was “effective as inhibitors of β-glucuronidase”. The “effectiveness against lung, colon and mammary carcinogenesis” value in the data set with carcinogenesis is “effective against lung, colon and mammary carcinogenesis”. Also, the “tumor induction relative to controls” value in data set [3] (4% CGT diet, started two weeks after carcinogen, by 28 weeks) is listed as 30%. For the same molecule, the “food consumption and weight gain” value in data set [3] (CGT-supplemented diet vs normal chow diet) is “ate quantities of food and had weight gain identical to those on the normal chow diet”. For the same molecule, the “steady-state level of sex hormones” value in data set [3] (anti-promotional effect of CGT, probable cause) is recorded as “reduction in the steady-state level of sex hormones”. The “release of D-glucaro-1,4-lactone” value in data set [1] (fed) was “slowly release D-glucaro-1,4-lactone (GL)”.
On to `O=C(O)[C@@H](O)[C@H]1OC(=O)[C@H](O)[C@H]1O` [GL, D-glucaro-1,4-lactone], for which, in the data set on β-glucuronidase (urine and intestine), the “inhibition of β-glucuronidase” value is recorded as “potent inhibitor of β-glucuronidase”.
With `CC1=C(/C=C/C(C)=C/C=C/C(C)=C/C(=O)Nc2ccc(O)cc2)C(C)(C)CCC1` [HPR, N-(4-hydroxyphenyl)retinamide], in data set [2] (0.75 mmol/kg HPR alone), the “inhibition of tumor incidence” value was determined as 15% and the inhibition of tumors/rat was determined as 9%. Besides, in data set [2] (0.75 mmol/kg diet HPR), the Rats with tumors came out at 12. The “regression of the DMBA-induced mammary tumors, following growth arrest” value in data set [4] worked out at 30%. The “inhibition of tumor growth” value in data set [5] worked out at 50%. In addition, the “level of cellular cAMP and of histone kinases” value in data set [6] is “elevate the level of cellular cAMP (cyclic AMP) and of histone kinases”.
Regarding `O=C(O)[C@@H](O)[C@@H](O)[C@H](O)[C@@H](O)C(=O)[O-].[K+]` [potassium hydrogen glucarate], the “inhibition of β-glucuronidase” value in the data set on β-glucuronidase (urine, intestine and liver) is “effective as inhibitors of β-glucuronidase”. Also, the “release of D-glucaro-1,4-lactone” value in data set [1] (fed) was “slowly release D-glucaro-1,4-lactone (GL)”.
